The structures appear in SMILES notation. The source made the active and inactive calls. How the calls were made is not given here.

The subject of the data set is CCRIS mutagenicity, Ames/micronucleus/aberration tests. The data set can be described thus: CCRIS mutagenicity studies.
[1] abbreviates: Test System: AMES SALMONELLA TYPHIMURIUM, Strain/Indicator: TA97, Metabolic Activation: NONE, Method: PREINCUBATION
The mark [2] stands for this setting: Test System: AMES SALMONELLA TYPHIMURIUM, Strain/Indicator: TA97, Metabolic Activation: RAT, LIVER, S-9, AROCLOR 1254, Method: PREINCUBATION
Where [3] appears, read: Test System: AMES SALMONELLA TYPHIMURIUM, Strain/Indicator: TA98, Metabolic Activation: NONE, Method: PREINCUBATION
[4] abbreviates: Test System: AMES SALMONELLA TYPHIMURIUM, Strain/Indicator: TA98, Metabolic Activation: NONE, Method: STANDARD PLATE.
Where [5] appears, read: Test System: AMES SALMONELLA TYPHIMURIUM, Strain/Indicator: TA98, Metabolic Activation: RAT, LIVER, S-9, AROCLOR 1254, Method: PREINCUBATION
[6] abbreviates: Test System: AMES SALMONELLA TYPHIMURIUM, Strain/Indicator: TA98, Metabolic Activation: RAT, LIVER, S-9, AROCLOR 1254, Method: STANDARD PLATE.
The mark [7] stands for this setting: Test System: AMES SALMONELLA TYPHIMURIUM, Strain/Indicator: TA100, Metabolic Activation: NONE, Method: PREINCUBATION
Setting [8] is: Test System: AMES SALMONELLA TYPHIMURIUM, Strain/Indicator: TA100, Metabolic Activation: NONE, Method: STANDARD PLATE.
Setting [9] is: Test System: AMES SALMONELLA TYPHIMURIUM, Strain/Indicator: TA100, Metabolic Activation: RAT, LIVER, S-9, AROCLOR 1254, Method: PREINCUBATION
Where [10] appears, read: Test System: AMES SALMONELLA TYPHIMURIUM, Strain/Indicator: TA100, Metabolic Activation: RAT, LIVER, S-9, AROCLOR 1254, Method: STANDARD PLATE.
The mark [11] stands for this setting: Test System: AMES SALMONELLA TYPHIMURIUM, Strain/Indicator: TA102, Metabolic Activation: NONE, Method: PREINCUBATION
Where [12] appears, read: Test System: AMES SALMONELLA TYPHIMURIUM, Strain/Indicator: TA102, Metabolic Activation: RAT, LIVER, S-9, AROCLOR 1254, Method: PREINCUBATION
[13] abbreviates: Test System: AMES SALMONELLA TYPHIMURIUM, Strain/Indicator: TA104, Metabolic Activation: NONE, Method: PREINCUBATION
[14] abbreviates: Test System: AMES SALMONELLA TYPHIMURIUM, Strain/Indicator: TA104, Metabolic Activation: RAT, LIVER, S-9, AROCLOR 1254, Method: PREINCUBATION
The mark [15] stands for this setting: Test System: AMES SALMONELLA TYPHIMURIUM, Strain/Indicator: TA1535, Metabolic Activation: NONE, Method: PREINCUBATION
Where [16] appears, read: Test System: AMES SALMONELLA TYPHIMURIUM, Strain/Indicator: TA1535, Metabolic Activation: RAT, LIVER, S-9, AROCLOR 1254, Method: PREINCUBATION

For the compound `O=c1[nH]c(=O)n([C@H]2C[C@H](O)[C@@H](CO)O2)cc1/C=C/Br`, the mutagenic call is, setting by setting: under setting [1], “inactive; negative”; under setting [2], “inactive; negative”; under setting [3], “inactive; negative”; under setting [4], “inactive; negative”; under setting [5], “inactive; negative”; under setting [6], “inactive; negative”. Besides, the mutagenic call is, setting by setting: under setting [7], “inactive; negative”; under setting [8], “inactive; negative”; under setting [9], “inactive; negative”; under setting [10], “inactive; negative”; under setting [11], “inactive; negative”; under setting [12], “inactive; negative”. Also, the mutagenic call is, setting by setting: under setting [13], “inactive; negative”; under setting [14], “inactive; negative”; under setting [15], “inactive; negative”; (Test System: AMES SALMONELLA TYPHIMURIUM, Strain/Indicator: TA1535, Metabolic Activation: NONE, Method: STANDARD PLATE) “inactive; negative”; under setting [16], “inactive; negative”; (Test System: AMES SALMONELLA TYPHIMURIUM, Strain/Indicator: TA1535, Metabolic Activation: RAT, LIVER, S-9, AROCLOR 1254, Method: STANDARD PLATE) “inactive; negative”. Moreover, the mutagenic call runs as follows: (Test System: AMES SALMONELLA TYPHIMURIUM, Strain/Indicator: TA1537, Metabolic Activation: NONE, Method: PREINCUBATION) “inactive; negative”; (Test System: AMES SALMONELLA TYPHIMURIUM, Strain/Indicator: TA1537, Metabolic Activation: NONE, Method: STANDARD PLATE) “inactive; negative”; (Test System: AMES SALMONELLA TYPHIMURIUM, Strain/Indicator: TA1537, Metabolic Activation: RAT, LIVER, S-9, AROCLOR 1254, Method: PREINCUBATION) “inactive; negative”; (Test System: AMES SALMONELLA TYPHIMURIUM, Strain/Indicator: TA1537, Metabolic Activation: RAT, LIVER, S-9, AROCLOR 1254, Method: STANDARD PLATE) “inactive; negative”; (Test System: AMES SALMONELLA TYPHIMURIUM, Strain/Indicator: TA1538, Metabolic Activation: NONE, Method: PREINCUBATION) “inactive; negative”; (Test System: AMES SALMONELLA TYPHIMURIUM, Strain/Indicator: TA1538, Metabolic Activation: NONE, Method: STANDARD PLATE) “inactive; negative”. The mutagenic call (Test System: AMES SALMONELLA TYPHIMURIUM, Strain/Indicator: TA1538, Metabolic Activation: RAT, LIVER, S-9, AROCLOR 1254, Method: PREINCUBATION) was “inactive; negative”; the mutagenic call (Test System: AMES SALMONELLA TYPHIMURIUM, Strain/Indicator: TA1538, Metabolic Activation: RAT, LIVER, S-9, AROCLOR 1254, Method: STANDARD PLATE) was “inactive; negative”; the mutagenic call (Test System: CHINESE HAMSTER OVARY, Strain/Indicator: CHO-K1-BH4 (HGPRT), Metabolic Activation: NONE) is “inactive; negative”; the mutagenic call (Test System: CHINESE HAMSTER V-79, Strain/Indicator: V-79/8-AZAGUANINE, Metabolic Activation: NONE) was “inactive; negative”; the mutagenic call (Test System: MOUSE LYMPHOMA, Strain/Indicator: L5178Y (TK+/TK-), Metabolic Activation: NONE, Method: SUSPENSION/PLATE) was “active; positive”; the mutagenic call (Test System: MOUSE LYMPHOMA, Strain/Indicator: L5178Y (TK+/TK-), Metabolic Activation: RAT, LIVER, S-9, AROCLOR 1254, Method: SUSPENSION/PLATE) was “inactive; negative”. Besides, the mutagenic call reads like this: (Test System: UDS RAT PRIMARY HEPATOCYTES, Strain/Indicator: THY INCORP (NON-S-PHASE), Metabolic Activation: NONE) “inactive; negative”; (Test System: UDS RODENT HEPATOCYTES, Strain/Indicator: THY INCORP, Metabolic Activation: NONE) “inactive; negative”.
Take `Oc1ccc(-c2ccc(O)cc2)cc1`: the mutagenic call under setting [1] was “inactive; negative”; the mutagenic call under setting [2] was “inactive; negative”; the mutagenic call under setting [3] is “inactive; negative”; the mutagenic call under setting [5] was “inactive; negative”; the mutagenic call under setting [7] was “inactive; negative”; the mutagenic call under setting [9] is “inactive; negative”. In addition, the mutagenic call under setting [11] was “inactive; negative”; the mutagenic call under setting [12] is “inactive; negative”; the mutagenic call under setting [13] was “inactive; negative”; the mutagenic call under setting [14] is “inactive; negative”; the mutagenic call under setting [15] was “inactive; negative”; the mutagenic call under setting [16] is “inactive; negative”. Under “Test System: CHINESE HAMSTER V-79, Strain/Indicator: V-79/6-THIOGUANINE, Metabolic Activation: NONE”, the mutagenic call was “inactive; negative”.
With `Nc1ccc2c(c1)-c1cccc3cccc-2c13`, the mutagenic call runs as follows: (Test System: AMES SALMONELLA TYPHIMURIUM, Strain/Indicator: TA98, Metabolic Activation: RAT, LIVER, S-9, AROCLOR 1254 (2 OR 4%), Method: STANDARD PLATE) “active; positive”; (Test System: AMES SALMONELLA TYPHIMURIUM, Strain/Indicator: TA100, Metabolic Activation: RAT, LIVER, S-9, AROCLOR 1254 (2%), Method: STANDARD PLATE) “active; positive”; (Test System: AMES SALMONELLA TYPHIMURIUM, Strain/Indicator: TA1535, Metabolic Activation: RAT, LIVER, S-9, AROCLOR 1254 (2%), Method: STANDARD PLATE) “inactive; negative”; (Test System: AMES SALMONELLA TYPHIMURIUM, Strain/Indicator: TA1537, Metabolic Activation: RAT, LIVER, S-9, AROCLOR 1254 (2%), Method: STANDARD PLATE) “active; positive”.
Turning to `CCN(Cc1cccc(S(=O)(=O)O)c1)c1ccc(C(=C2C=CC(=[N+](CC)Cc3cccc(S(=O)(=O)O)c3)C=C2)c2ccc(O)cc2S(=O)(=O)[O-])cc1`, the mutagenic call is “inactive; negative” (End Point: IN VIVO MICRONUCLEUS, Test System: BONE MARROW POLYCHROMATIC ERYTHROCYTES, Species: MOUSE, Strain/Sex: DDY/MALE, Route: IP); “inactive; negative” (Test System: Mouse lymphoma, Strain/Indicator: L5178Y (tk+/tk-), Metabolic Activation: None, Method: Suspension/plate); “inactive; negative” (Test System: Mouse lymphoma, Strain/Indicator: L5178Y (tk+/tk-), Metabolic Activation: Rat, Liver, S-9, Aroclor 1254, Method: Suspension/plate).
For `N#CC1=Cc2cccc3cccc1c23`, the mutagenic call by setting is: under setting [4], “inactive; negative”; under setting [6], “inactive; negative”; under setting [8], “active; positive”; under setting [10], “active; positive”.
On to `Oc1ccc2c3cc4ccccc4cc3c3ccccc3c2c1O`, for which the mutagenic call under setting [9] is “active; positive”.

These data come from PubChem BioAssay AID1259407 (Chemical Carcinogenesis Research Information System (CCRIS), 2018).
